According to patent publication US11274115B2, “Imidazoquinoline derivatives and their use in therapy” (GLAXOSMITHKLINE BIOLOGICALS SA, priority 2016, dated 2022):
Where two headings read alike, the source gives them in different places.

Molecular target: T1, human TLR7 (Homo sapiens, UniProt Q9NYK1)
T1 construct: host or cells: HEK293
T1 sequence (Q9NYK1 27-1049): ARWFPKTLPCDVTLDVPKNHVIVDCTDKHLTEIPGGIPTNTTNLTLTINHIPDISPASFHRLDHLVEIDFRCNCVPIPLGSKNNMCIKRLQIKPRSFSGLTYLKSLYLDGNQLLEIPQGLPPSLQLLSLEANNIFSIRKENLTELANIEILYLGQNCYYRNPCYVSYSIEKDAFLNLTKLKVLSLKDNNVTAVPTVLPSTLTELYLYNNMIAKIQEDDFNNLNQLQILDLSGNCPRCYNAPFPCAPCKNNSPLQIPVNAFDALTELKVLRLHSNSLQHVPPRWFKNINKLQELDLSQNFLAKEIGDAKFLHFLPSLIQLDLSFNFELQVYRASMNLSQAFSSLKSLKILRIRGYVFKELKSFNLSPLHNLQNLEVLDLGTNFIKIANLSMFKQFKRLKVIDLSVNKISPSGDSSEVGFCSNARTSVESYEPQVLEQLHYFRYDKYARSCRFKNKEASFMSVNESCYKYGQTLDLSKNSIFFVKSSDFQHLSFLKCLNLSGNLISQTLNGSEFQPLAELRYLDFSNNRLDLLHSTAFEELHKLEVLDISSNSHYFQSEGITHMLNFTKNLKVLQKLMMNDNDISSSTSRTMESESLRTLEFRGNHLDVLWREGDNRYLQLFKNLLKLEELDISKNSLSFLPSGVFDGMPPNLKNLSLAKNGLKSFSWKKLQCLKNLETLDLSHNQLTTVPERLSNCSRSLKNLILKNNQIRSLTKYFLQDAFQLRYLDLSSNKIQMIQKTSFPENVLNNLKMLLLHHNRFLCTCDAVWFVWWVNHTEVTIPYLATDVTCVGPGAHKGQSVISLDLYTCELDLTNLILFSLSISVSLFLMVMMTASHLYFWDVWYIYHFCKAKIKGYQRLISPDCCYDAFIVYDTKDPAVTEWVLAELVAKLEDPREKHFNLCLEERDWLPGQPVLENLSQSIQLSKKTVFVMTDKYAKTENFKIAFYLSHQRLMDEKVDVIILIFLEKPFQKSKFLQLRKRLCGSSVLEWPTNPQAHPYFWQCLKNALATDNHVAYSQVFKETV
Test: hTLR7 agonist reporter assay in HEK293 cells (NFκB-SEAP)
Type: cell-based
Conditions: for EC50: read-out: hTLR7 ED50; for hTLR7/8 ratio: hTLR7 ED50 over hTLR8 ED50
Procedure: Assay for hTLR7 and hTLR8 Agonist Activity in HEK-293 Cells
Determination of TLR agonist activity was performed using the HEK293 […]. This assay measures TLR7 and TLR8 selectivity and potency of the compounds tested. HEK293 cells expressing human TLR7 or TLR8 and NFκB responsive Secreted Embryonic Alkaline Phosphatase (SEAP) reporter gene were obtained from InvivoGen (San Diego, Calif.). These cells were maintained in culture media of Dulbecco's Modified Eagle Medium (DMEM) (Invitrogen, Grand Island, N.Y.), 10% Fetal Bovine Serum (FBS) (Sigma, St. Louis, Mo.) and selection antibiotics (Invitrogen, and Invivogen). HEK293 stably transfected with human TLR7 (hTLR7) or human TLR8 (hTLR8) were stimulated for 24 h with aqueous formulations of test compounds and culture supernatants were analyzed for NFκB activation using the colorimetric SEAP detection kit QuantBlue (InvivoGen).

selectivity hTLR8/hTLR7, in words (Table 1): notable selectivity for hTLR8/hTLR7 | EC50 (Table 1, FIG. 1, 24 h stimulation, aqueous formulations): 1.06 µM | hTLR7/8 ratio (Table 1): 11.0 | EC50 (Table 2, FIG. 3, another occasion, * = only very low levels of NFKB activation were detected): 7 µM | hTLR7/8 ratio (Table 2): 8.9 | hTLR7 agonist activity, in words (Table 3, FIG. 5): agonist of both TLR7 and TLR8 | EC50 (Table 3, FIG. 5, another occasion, * = only very low levels of NFKB activation were detected): 4.1 µM | hTLR7/8 ratio (Table 3): 6.9 | EC50 (Table 4, FIG. 7, another occasion): 7 µM | hTLR7/8 ratio (Table 4): 9.9
Structure (SMILES): CCCCCCCC/C=C\CCCCCCCC(=O)OC[C@H](COP(=O)(O)OCCOc1ccc2c(c1)nc(N)c1nc(CCCC)n(CCO)c12)OC(=O)CCCCCCC/C=C\CCCCCCCC [Example 1]
hTLR7 agonist activity, in words (text on Table 1, FIG. 1): significantly more potent as an agonist of hTLR7 and hTLR8 than Comparative Example 2 | hTLR7 agonist activity, in words (text on Table 2, FIG. 3): more active than Comparative Example 2 as an agonist of hTLR7 and hTLR8
